Results: ChEMBL document CHEMBL1137822 (J Med Chem, 2004)

Legend:
Cholinesterase = Cholinesterase (Homo sapiens, UniProt P06276); assay: Inhibitory concentration against human serum butyrylcholinesterase activity
Acetylcholinesterase = Acetylcholinesterase (Homo sapiens, UniProt P22303); assay: Inhibitory concentration against human serum acetylcholinesterase activity
Sequence of Acetylcholinesterase (P22303 whole entry): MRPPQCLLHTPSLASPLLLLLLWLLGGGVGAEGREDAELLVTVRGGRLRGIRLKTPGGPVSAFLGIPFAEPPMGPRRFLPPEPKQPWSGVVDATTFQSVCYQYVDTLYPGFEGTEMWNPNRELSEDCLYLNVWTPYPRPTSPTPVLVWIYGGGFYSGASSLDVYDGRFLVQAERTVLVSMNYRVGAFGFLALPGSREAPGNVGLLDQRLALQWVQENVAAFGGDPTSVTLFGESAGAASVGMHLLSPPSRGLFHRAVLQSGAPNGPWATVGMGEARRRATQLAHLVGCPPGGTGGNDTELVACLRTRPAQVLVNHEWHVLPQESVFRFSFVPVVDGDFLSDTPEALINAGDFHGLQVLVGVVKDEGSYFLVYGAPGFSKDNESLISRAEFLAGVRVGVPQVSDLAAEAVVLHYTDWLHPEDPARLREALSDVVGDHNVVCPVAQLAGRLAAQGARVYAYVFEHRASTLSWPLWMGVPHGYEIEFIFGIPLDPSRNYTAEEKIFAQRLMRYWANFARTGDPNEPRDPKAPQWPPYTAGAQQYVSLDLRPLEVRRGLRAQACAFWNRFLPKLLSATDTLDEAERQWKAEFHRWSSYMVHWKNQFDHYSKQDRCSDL

Sequence of Cholinesterase (P06276 whole entry): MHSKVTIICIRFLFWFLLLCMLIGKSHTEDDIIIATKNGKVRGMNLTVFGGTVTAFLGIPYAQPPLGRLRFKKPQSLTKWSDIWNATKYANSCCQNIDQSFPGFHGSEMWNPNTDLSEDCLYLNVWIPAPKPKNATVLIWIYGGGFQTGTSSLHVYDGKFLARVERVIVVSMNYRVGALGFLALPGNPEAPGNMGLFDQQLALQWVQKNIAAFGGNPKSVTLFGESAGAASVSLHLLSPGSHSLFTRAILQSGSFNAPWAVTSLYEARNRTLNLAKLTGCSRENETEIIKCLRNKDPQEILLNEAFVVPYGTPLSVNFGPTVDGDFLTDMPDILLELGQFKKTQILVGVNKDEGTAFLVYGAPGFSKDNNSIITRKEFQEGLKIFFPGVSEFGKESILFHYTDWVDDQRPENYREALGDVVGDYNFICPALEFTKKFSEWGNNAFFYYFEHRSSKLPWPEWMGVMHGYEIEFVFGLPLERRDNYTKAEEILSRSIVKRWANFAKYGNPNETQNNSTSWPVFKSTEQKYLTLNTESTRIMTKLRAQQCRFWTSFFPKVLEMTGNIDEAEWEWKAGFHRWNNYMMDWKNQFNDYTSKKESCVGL

SMILES	IC50 (Cholinesterase) [nM]	IC50 (Acetylcholinesterase) [nM]
CNC(=O)Oc1cccc2c1CCC1CCN(C)C21 (centres undefined)	24.5	17.3
CC(NC(=O)Oc1cccc2c1OCC1CCN(C)C21)c1ccccc1 (centres undefined)	209	–
CCCCCCCNC(=O)Oc1cccc2c1OCC1CCN(C)C21 (centres undefined)	1.26	20.3
CCNC(=O)Oc1cccc2c1CCC1CCN(C)C21 (centres undefined)	30.3	393
CNC(=O)Oc1cccc2c1OCC1CCN(C)C21 (centres undefined)	59.4	30
CNC(=O)Oc1cccc(C(C)N(C)C)c1 (centres undefined)	406	–
CCNC(=O)Oc1cccc2c1OCC1CCN(C)C21 (centres undefined)	44.4	420
CNC(=O)Oc1cccc2c1SCC1CCN(C)C21 (centres undefined)	10.5	8.11
